Results published in patent US20050281848A1, “Oleaginous ointments comprising two solubilized bioactive agents for the treatment of psoriasis” (GALDERMA S.A., priority 2004, published 2005).

Legend:
Type in all cases: physicochemical
[1] = Chemical stability of the actives in Composition 2
Procedure: The compositions of the invention are found particularly effective in conserving satisfactory chemical stability of active principles which are sensitive to oxidation, to water and to aqueous media in general. The term “satisfactory chemical stability” refers to a composition which over a period of at least 3 months, respectively at ambient temperature and at 40° C.:
has an active principles content of at least 80%, in particular at least 90% and more particularly at least 95% of the initial weight content.

[2] = Stability of calcitriol in Cetiol SN (HPLC assay against a reference); conditions: for Calcitriol content, T0 taken as 100%: calcitriol 30 ppm in Cetiol SN, 0.4% BHT, under nitrogen
Procedure: b) Stability of Calcitriol in Cetiol SN (Cetearyl Isononanoate): A solution is prepared of calcitriol 30 ppm in qs 100% of Cetiol SN in the presence of 0.4% of BHT and kept under nitrogen. The initial time (TO) is taken as 100%.

[3] = Stability of calcitriol in Miglyol 812 (HPLC assay against a reference); conditions: for Calcitriol content, T0 taken as 100%: calcitriol 30 ppm in Miglyol 812, 0.4% BHT, under nitrogen
Procedure: The stability of calcitriol was evaluated in the following two oil solvents: Miglyol 812 and Cetiol SN. a) Stability of Calcitriol in Miglyol 812 (Caprylic and 20 Capric Triglycerides): A solution is prepared of calcitriol 30 ppm in qs 100% of Miglyol 812 in the presence of 0.4% of BHT (antioxidant), kept under nitrogen. The initial time (TO) is taken as 100%.

Chemical stability: content of the active ([1]; T0, AT) | Chemical stability: content of the active ([1]; T15 d, 40° C.) | Chemical stability: content of the active ([1]; T15 d, AT) | Calcitriol content, T0 taken as 100% ([2]; +4° C., T2 weeks) [%] | Calcitriol content, T0 taken as 100% ([2]; +4° C., T4 weeks) [%] | Calcitriol content, T0 taken as 100% ([2]; +40° C., T2 weeks) [%] | Calcitriol content, T0 taken as 100% ([2]; +40° C., T4 weeks) [%] | Calcitriol content, T0 taken as 100% ([2]; AT, T2 weeks) [%] | Calcitriol content, T0 taken as 100% ([2]; AT, T4 weeks) [%] | Stability in solution ([2]; in cetearyl isononanoate, 1 month) | Calcitriol content, T0 taken as 100% ([3]; +4° C., T2 weeks) [%] | Calcitriol content, T0 taken as 100% ([3]; +4° C., T4 weeks) [%] | Calcitriol content, T0 taken as 100% ([3]; +40° C., T2 weeks) [%] | Calcitriol content, T0 taken as 100% ([3]; +40° C., T4 weeks) [%] | Calcitriol content, T0 taken as 100% ([3]; ambient temperature, T2 weeks) [%] | Calcitriol content, T0 taken as 100% ([3]; ambient temperature, T4 weeks) [%] | Stability in solution ([3]; in caprylic/capric triglyceride, 1 month) | Compound
PROPIONATE: 97.3% | PROPIONATE: 92.3 | PROPIONATE: 95.2 | – | – | – | – | – | – | – | – | – | – | – | – | – | – | CCC(=O)O[C@]1(C(=O)CCl)[C@@H](C)C[C@H]2[C@@H]3CCC4=CC(=O)C=C[C@]4(C)[C@@]3(F)[C@@H](O)C[C@@]21C [CLOBETASOL PROPIONATE, clobetasol 17-propionate]
CALCITRIOL: 97.6% | CALCITRIOL: 86.8 | CALCITRIOL: 95.1 | 103.7 | 97.9 | 99.4 | 98.1 | 99.6 | 98.7 | stable | 98.2 | 105.2 | 93.1 | 95.0 | 95.8 | 98.0 | stable | C=C1/C(=C\C=C2/CCC[C@]3(C)[C@@H]([C@H](C)CCCC(C)(C)O)CC[C@@H]23)C[C@@H](O)C[C@@H]1O [calcitriol]
